How the values were obtained:
[1] = test system: Staphylococcus aureus ATCC 29213; test: MIC, microtitration broth method; format: cell-based; settings: ATCC29213; SA = Staphylococcus aureus ATCC 29213; 24 h, 37 °C
[2] = test system: methicillin-resistant S. aureus SA 3202 (MRSA1); test: MIC, microtitration broth method; format: cell-based; settings: Staphylococcus aureus; MRSA1 = SA 3202; 24 h, 37 °C
[3] = test system: methicillin-resistant S. aureus SA 630 (MRSA2); test: MIC, microtitration broth method; format: cell-based; settings: Staphylococcus aureus; MRSA2 = SA 630; 24 h, 37 °C
[4] = test system: methicillin-resistant S. aureus 63718 (MRSA3); test: MIC, microtitration broth method; format: cell-based; settings: Staphylococcus aureus; MRSA3 = 63718; 24 h, 37 °C
[5] = test system: Enterococcus faecalis ATCC 29212; test: MIC, microtitration broth method; format: cell-based; settings: ATCC29212; EF = Enterococcus faecalis; 24 h, 37 °C
[6] = test system: vancomycin-resistant E. faecalis VRE 342B (VRE1); test: MIC, microtitration broth method; format: cell-based, Enterococcus faecalis; settings: VRE1 = VRE 342B; 24 h, 37 °C
[7] = test system: vancomycin-resistant E. faecalis VRE 368 (VRE2); test: MIC, microtitration broth method; format: cell-based, Enterococcus faecalis; settings: VRE2 = VRE 368; 24 h, 37 °C
[8] = test system: vancomycin-resistant E. faecalis VRE 725B (VRE3); test: MIC, microtitration broth method; format: cell-based, Enterococcus faecalis; settings: VRE3 = VRE 725B; 24 h, 37 °C
M. smegmatis ATCC 700084 = test: In vitro antimycobacterial MIC, broth dilution micro-method; format: cell-based, Mycobacterium smegmatis; settings: Mycolicibacterium smegmatis, ATCC700084, 72 h; MS = M. smegmatis ATCC 700084; 3 days, 37 °C
[9] = test system: Mycobacterium marinum CAMP 5644; test: as above; format: cell-based; settings: CAMP5644, 504 h; MM = Mycobacterium marinum CAMP 5644; 21 days, 28 °C
[10] = test system: Staphylococcus aureus ATCC 29213; test: MBC, agar aliquot subculture method; format: cell-based; settings: ATCC29213; SA = Staphylococcus aureus ATCC 29213
[11] = test system: methicillin-resistant S. aureus SA 3202 (MRSA1); test: MBC, agar aliquot subculture method; format: cell-based; settings: Staphylococcus aureus; MRSA1 = SA 3202
[12] = test system: methicillin-resistant S. aureus SA 630 (MRSA2); test: MBC, agar aliquot subculture method; format: cell-based; settings: Staphylococcus aureus; MRSA2 = SA 630
[13] = test system: methicillin-resistant S. aureus 63718 (MRSA3); test: MBC, agar aliquot subculture method; format: cell-based; settings: Staphylococcus aureus; MRSA3 = 63718
[14] = test system: Enterococcus faecalis ATCC 29212; test: MBC, agar aliquot subculture method; format: cell-based; settings: ATCC29212; EF = Enterococcus faecalis
[15] = test system: vancomycin-resistant E. faecalis VRE 342B (VRE1); test: MBC, agar aliquot subculture method; format: cell-based, Enterococcus faecalis; settings: VRE1 = VRE 342B
[16] = test system: vancomycin-resistant E. faecalis VRE 368 (VRE2); test: MBC, agar aliquot subculture method; format: cell-based, Enterococcus faecalis; settings: VRE2 = VRE 368
[17] = test system: vancomycin-resistant E. faecalis VRE 725B (VRE3); test: MBC, agar aliquot subculture method; format: cell-based, Enterococcus faecalis; settings: VRE3 = VRE 725B
[18] = test system: normal human dermal fibroblasts (NHDF); test: In vitro cell viability, WST-1 assay; format: cell-based; settings: 72 h
Description: Compounds were evaluated for their antiproliferative activity using NHDF (normal human dermal fibroblasts, ATCC, Manassas, VA, USA). The cultured cells were kept at 37 °C and 5% CO2. The cells were seeded (1 × 10^4 cells/well/100 μL DMEM supplemented with 10% FCS and streptomycin/penicillin) into 96-well plates (Corning Inc., Corning, NY, USA). Cells were counted using a hemocytometer (Burker chamber) and phase contrast Olympus IX50 microscope equipped with Sony SSC-DC58 AP camera and Olympus DP10 digital camera. The cell viability of the compounds was determined using the Cell Proliferation Reagent WST-1 assay (Roche Molecular Biochemicals, Mannheim, Germany). The examined cells were exposed to the tested compounds (1 mg/mL DMSO stock) for 72 h at various concentrations (0.1–100 μg/mL). The control was included in order to eliminate the DMSO effect at the concentration used. Cell cultures were incubated with WST-1 (10 μL) for 1 h. The absorbance of the samples was measured against a background control at 450 nm using a microplate reader with a reference wavelength at 600 nm. The obtained results are expressed as means of at least two independent experiments performed in triplicate.

Lipophilicity by RP-TLC = format: physicochemical; settings: Tris buffer pH 7.4/acetone, read-out: logPTLC
Description: The lipophilicity parameters were determined experimentally using reverse phase thin-layer chromatography (RP-TLC). Chromatograms were prepared on RP-18F254s plates (1.05559.0001, Merck, Germany) precoated with nonpolar silicone oil. Plates were developed in glass chromatography chambers previously saturated with vapor of mobile phase. The mobile phase was composed of 0.2M Tris buffer (pH = 7.4) and acetone in different concentrations, i.e., 50%, 60%, 70%, 80 and 90%. The chromatograms were visualised in UV light (λ = 254 nm). Determination of the RF coefficient was carried out twice for all compounds; in all cases, acetone concentrations used. The final value of RF is the mean of the two measurements. The obtained RF coefficient was used to calculate the value of the RM parameter according to the equation: RM = log [(1/RF) − 1]. By extrapolating RM values to zero acetone concentration, a relative RM0 lipophilicity parameter was obtained, according to the equation: RM = RM0 + bC, where b is slope and C is concentration of acetone in mobile phase. Based on RM0 and the calibration curve, the values of logPTLC for compounds 6a–l were determined. The calibration curve was calculated using the relationship between RM0 of the standard molecules (acetanilide, p-kresol, p-bromoacetophenone, benzophenone, anthracene) and the corresponding logP parameters specified by the extraction method, respectively. RM0 parameters of the standard molecules and quinobenzothiazine derivatives 6a–l were determined in the same empirical conditions.

[19] = test system: S. aureus ATCC 29213 respiratory activity; test: MTT assay of bacterial respiration; format: cell-based, Staphylococcus aureus; settings: for S. aureus Respiration Inhibition: at the concentration given; for Conc.: corresponding multiple of MBC with at least 70% inhibition of respiratory activity / Conc.: lowest multiple of MIC with at least 70% inhibition of respiratory activity: S. aureus ATCC 29213, MTT, 24 h; for Decrease in viability < 70% at MIC value (MTT): S. aureus ATCC 29213, at MIC
S. aureus = test: Crystal violet uptake (membrane permeability); format: cell-based, Staphylococcus aureus; settings: 4× MIC, 1 h; compared to growth control and 1% Tween 20
Description: Phenothiazines are also known for their ability to interact with and damage the cell wall, which has fatal consequences for the microorganism. Therefore, the bacterial suspensions were treated by compounds 6a, 6e, 6g, 6j and 6k (4× MIC) for 1 h. The uptake of crystal violet was expressed as a percentage compared to the original crystal violet solution.

| SMILES | MIC [1] [µM] | MIC [2] [µM] | MIC [3] [µM] | MIC [4] [µM] | MIC [5] [µM] | MIC [6] [µM] | MIC [7] [µM] | MIC [8] [µM] | MIC (M. smegmatis ATCC 700084) [µM] | MIC [9] [µM] | MBC [10] [µM] | MBC [11] [µM] | MBC [12] [µM] | MBC [13] [µM] | MBC [14] [µM] | MBC [15] [µM] | MBC [16] [µM] | MBC [17] [µM] | IC50 [18] [µM] | chromatographic logP (Lipophilicity by RP-TLC) | further results |
| --- | --- | --- | --- | --- | --- | --- | --- | --- | --- | --- | --- | --- | --- | --- | --- | --- | --- | --- | --- | --- | --- |
| C[n+]1cc2c(c3ccccc31)Nc1ccc(OCc3ccccc3)cc1S2 [Compound 6j, 9-benzyloxy-5-methyl-12H-quino[3,4-b][1,4]benzothiazinium chloride] | 9.83 | 4.91 | 9.83 | 2.46 | 19.7 | 19.7 | 78.6 | 39.3 | 9.83 | 2.5 | 9.83 | 9.83 | 9.83 | 2.46 | 39.3 | 19.7 | 78.6 | 39.3 | 37.7 | 3.41 | S. aureus Respiration Inhibition [19]: 91.3%; Effect on plasma membrane permeability (uptake of crystal violet) (S. aureus): did not affect plasma membrane permeability |
| C=CCOc1ccc2c(c1)Nc1c(c[n+](C)c3ccccc13)S2 [Compound 6e, 10-allyloxy-5-methyl-12H-quino[3,4-b][1,4]benzothiazinium chloride] | 44.8 | 44.8 | 44.8 | 22.4 | 89.6 | 179 | 179 | 89.6 | 22.4 | 11.2 | 44.8 | 44.8 | 44.8 | 22.4 | 89.6 | 179 | 179 | 89.6 | > 100 | 2.47 | Conc.: corresponding multiple of MBC with at least 70% inhibition of respiratory activity [19]: 2× MIC (2× MBC); Conc.: lowest multiple of MIC with at least 70% inhibition of respiratory activity [19]: 2× MIC (2× MBC); Decrease in viability < 70% at MIC value (MTT) [19]: did not show a decrease in viability < 70%; S. aureus Respiration Inhibition [19]: 97.4%; Effect on plasma membrane permeability (uptake of crystal violet) (S. aureus): did not affect plasma membrane permeability |
| CCCOc1ccc2c(c1)Sc1c[n+](C)c3ccccc3c1N2 [Compound 6a, 9-propoxy-5-methyl-12H-quino[3,4-b][1,4]benzothiazinium chloride] | 22.3 | 22.3 | 22.3 | 11.1 | 89.1 | 89.1 | 89.1 | 89.1 | 22.3 | 22.3 | 22.3 | 22.3 | 22.3 | 11.1 | 89.1 | 89.1 | 89.1 | 178 | > 100 | 1.65 | Conc.: corresponding multiple of MBC with at least 70% inhibition of respiratory activity [19]: 2× MIC (2× MBC); Conc.: lowest multiple of MIC with at least 70% inhibition of respiratory activity [19]: 2× MIC (2× MBC); Decrease in viability < 70% at MIC value (MTT) [19]: did not show a decrease in viability < 70%; S. aureus Respiration Inhibition [19]: 97.7%; Effect on plasma membrane permeability (uptake of crystal violet) (S. aureus): did not affect plasma membrane permeability |
| C[n+]1cc2c(c3ccccc31)Nc1cc(OCc3ccccc3)ccc1S2 [Compound 6k, 10-benzyloxy-5-methyl-12H-quino[3,4-b][1,4]benzothiazinium chloride] | 19.7 | 19.7 | 9.83 | 9.83 | 78.6 | 78.6 | 157 | 157 | 19.7 | 19.7 | 19.7 | 19.7 | 19.7 | 9.83 | 78.6 | 78.6 | 157 | 157 | > 100 | 3.48 | Conc.: corresponding multiple of MBC with at least 70% inhibition of respiratory activity [19]: 2× MIC (2× MBC); Conc.: lowest multiple of MIC with at least 70% inhibition of respiratory activity [19]: 2× MIC (2× MBC); Decrease in viability < 70% at MIC value (MTT) [19]: did not show a decrease in viability < 70%; S. aureus Respiration Inhibition [19]: 97.6%; Effect on plasma membrane permeability (uptake of crystal violet) (S. aureus): did not affect plasma membrane permeability |
| CCCOc1ccc2c(c1)Nc1c(c[n+](C)c3ccccc13)S2 [Compound 6b, 10-propoxy-5-methyl-12H-quino[3,4-b][1,4]benzothiazinium chloride] | 22.3 | 44.6 | 44.6 | 22.3 | 89.1 | 178 | 178 | 89.1 | 22.3 | 22.3 | 44.6 | 44.6 | 44.6 | 22.3 | 89.1 | 178 | 178 | 89.1 | 65.5 | 1.99 | – |
| C=CCOc1cccc2c1Nc1c(c[n+](C)c3ccccc13)S2 [Compound 6f, 11-allyloxy-5-methyl-12H-quino[3,4-b][1,4]benzothiazinium chloride] | 359 | 359 | 359 | 179 | 179 | 359 | 359 | 179 | 89.6 | 44.8 | 359 | 359 | 359 | 359 | 359 | 359 | 359 | 179 | > 100 | 2.29 | – |
